Results as given in PubChem BioAssay (NCI).
Several values for one entry are separate records, joined by “and”; a condition that tells them apart may be missing. Identical values can stand only once.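 Step 1: Grow cells in 96-well plates. Step 2: Expose to compound for 48 hours at 5 concentrations. Step 3: Interpolate endpoints linearly; if unreached, use highest concentration. At the GI50, growth is halved. TGI is the concentration that stops growth completely.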

How the values were obtained:
Assay in all cases: NCI anticancer screen, dose series, 48 h
[1] = tested on: TK-10 renal
[2] = tested on: T-47D breast
[3] = tested on: SF-295 CNS
[4] = tested on: NCI/ADR-RES ovarian
[5] = tested on: SK-MEL-2 melanoma
[6] = tested on: SNB-19 CNS
[7] = tested on: A549 NSCLC
[8] = tested on: OVCAR-3 ovarian
[9] = tested on: UACC-257 melanoma
[10] = tested on: SR leukemia

With `NCCCCC1NC(=O)C(CC(=O)O)NC(=O)CNC(=O)C(CCCN=C(N)N)NC(=O)C(N)CSSCC(C(=O)O)NC(=O)C(CC(=O)O)NC(=O)C2CCCN2C(=O)CNC1=O` (configuration not stated) the GI50 [1] was > 100 µM, the TGI [1] was > 100 µM and the GI50 [2] was > 100000 nM. The TGI [2] was > 100 µM, the GI50 [3] was > 100000 nM and the TGI [3] was > 100 µM. For the same molecule, the GI50 [4] was > 100 µM, the TGI [4] was > 100 µM and the GI50 [5] was > 100 µM. The TGI [5] was > 100 µM, the GI50 [6] was > 100 µM and the TGI [6] was > 100 µM. The GI50 [7] was > 100 µM, the TGI [7] was > 100 µM and the GI50 [8] was > 100000 nM. For the same molecule, the TGI [8] was > 100 µM.

`COc1ccc(-c2cc(C(=O)Nc3cc(C(F)(F)F)cc(C(F)(F)F)c3)c3ccccc3n2)cc1` gave a TGI [9] of 51.4 µM, a TGI [1] of 29.5 µM and a TGI [10] of 38.5 µM. For the same molecule, the TGI [3] was 32.5 µM, the TGI [5] was 30.6 µM and the TGI [7] was 17.5 µM. For the same molecule, the TGI [8] was 15.5 µM.

In the case of `C#CCNC(=S)N/N=C(\C)c1ccccn1`, the GI50 [9] is reported as 302 nM, the TGI [9] is reported as 1.49 µM and the GI50 [1] is reported as 3.07 µM. The TGI [1] was > 100 µM, the GI50 [10] was 328 nM and the TGI [10] was 3.4 µM. The GI50 [2] was 93.3 nM, the TGI [2] was > 100 µM and the GI50 [3] was 706 nM. The TGI [3] was > 100 µM, the GI50 [5] was 6.2 µM and the TGI [5] was > 100 µM. The GI50 [6] was 3.43 µM, the TGI [6] was > 100 µM and the GI50 [7] was 1.18 µM. The TGI [7] was > 100 µM, the GI50 [8] was 35.3 nM and the TGI [8] was 19.4 µM.

With `[O-]c1ccccc1C=Nc1ccc2c(c1)CCC2.[O-]c1ccccc1C=Nc1ccc2c(c1)CCC2.[O]=[U+2]=[O]` the GI50 [9] was > 100000 nM, the TGI [9] was > 100 µM and the GI50 [1] was 30.1 µM. For the same molecule, the TGI [1] was 82.2 µM, the GI50 [3] was > 100000 nM and the TGI [3] was > 100 µM. The GI50 [5] was > 100 µM, the TGI [5] was > 100 µM and the GI50 [6] was 27.9 µM. For the same molecule, the TGI [6] was > 100 µM, the GI50 [7] was > 100 µM and the TGI [7] was > 100 µM. For the same molecule, the GI50 [8] was > 100000 nM and the TGI [8] was > 100 µM.

`O=C(O)/C=C\C(=O)Nc1ccccn1` was tested, and the TGI [9] was > 100 µM, the TGI [10] was > 100 µM and the TGI [2] was > 100 µM. For the same molecule, the TGI [3] was > 100 µM, the TGI [4] was > 100 µM and the TGI [5] was > 100 µM. The TGI [6] was > 100 µM, the TGI [7] was > 100 µM and the TGI [8] was > 100 µM.

Work on `Cc1ccc(S(=O)(=O)N=NC=C2c3ccccc3N(O)c3ccccc32)cc1` yielded a TGI [9] of 23.7 µM, a TGI [1] of 16.5 µM and a TGI [3] of 21.6 µM. For the same molecule, the TGI [5] was 17.8 µM, the TGI [6] was 24.2 µM and the TGI [7] was 20 µM. For the same molecule, the TGI [8] was 30 µM.

With `COC(=O)CCC12CCC(=O)C1[C@@H](C(=O)OC)C[C@H]2C(=O)OC` (some centres not stated) the TGI [9] was > 100 µM, the TGI [1] was > 100 µM and the TGI [3] was > 100 µM. For the same molecule, the TGI [5] was > 100 µM, the TGI [6] was > 100 µM and the TGI [7] was > 100 µM. The TGI [8] was > 100 µM.

`C1=C/COCc2cc(ccc2OCCN2CCCC2)Nc2nccc(n2)-c2ccc(o2)COC/1` was tested, and the GI50 [9] was 1520 nM, the TGI [9] was 3.43 µM and the GI50 [1] was 2.42 µM. For the same molecule, the TGI [1] was 12 µM, the GI50 [2] was 1210 nM and the TGI [2] was 7.33 µM. It also gave a GI50 [3] of 2740 nM, a TGI [3] of 8.02 µM and a GI50 [4] of 2.9 µM. For the same molecule, the TGI [4] was 8.62 µM, the GI50 [5] was 1.46 µM and the TGI [5] was 4 µM. For the same molecule, the GI50 [6] was 2.93 µM, the TGI [6] was 13.5 µM and the GI50 [7] was 2.23 µM. It also gave a TGI [7] of 12 µM, a GI50 [8] of 1990 nM and a TGI [8] of 8.48 µM.

With `COc1ccc(Nc2nc3ccccc3c3occc23)cc1` the GI50 [9] was 19800 nM, the TGI [9] was > 50 µM and the GI50 [1] was 6.83 µM. For the same molecule, the TGI [1] was 16.4 µM, the GI50 [10] was 663 nM and the TGI [10] was > 50 µM. For the same molecule, the GI50 [3] was 6640 nM, the TGI [3] was 13.2 µM and the GI50 [4] was 9.32 µM. It also gave a TGI [4] of 18.7 µM, a GI50 [5] of 8.68 µM and a TGI [5] of 22.5 µM. For the same molecule, the GI50 [6] was 7.62 µM, the TGI [6] was 16.5 µM and the GI50 [7] was 32.9 µM. For the same molecule, the TGI [7] was > 50 µM, the GI50 [8] was 7850 nM and the TGI [8] was > 50 µM.

Work on `COc1cccc(CN(C)c2ccc(CO)c(Cl)c2)c1` yielded a GI50 [9] of 216 nM, a TGI [9] of 0.679 µM and a GI50 [10] of 41800 nM. For the same molecule, the TGI [10] was > 100 µM, the GI50 [2] was 298 nM and the TGI [2] was 2.86 µM. The GI50 [3] was 3710 nM, the TGI [3] was > 66.2 µM and the GI50 [4] was 19.1 µM. The TGI [4] was 67 µM, the GI50 [5] was 7.78 µM and the TGI [5] was 42.5 µM. The GI50 [6] was 35.2 µM, the TGI [6] was > 100 µM and the GI50 [7] was 4.09 µM. It also gave a TGI [7] of 40.1 µM, a GI50 [8] of 2310 nM and a TGI [8] of 10.6 µM.

`CN(Cc1ccc(C(F)(F)F)cc1)CC(O)C(=O)Nc1ccc(Cl)cc1` (configuration not stated) gave a GI50 [9] of 1810 nM, a TGI [9] of 3.38 µM and a GI50 [1] of 1.74 µM. The TGI [1] was 3.38 µM, the GI50 [2] was 1380 nM and the TGI [2] was 2.87 µM. The GI50 [3] was 1630 nM, the TGI [3] was 3.08 µM and the GI50 [4] was 1.58 µM. The TGI [4] was 3.02 µM, the GI50 [5] was 1.93 µM and the TGI [5] was 3.62 µM. It also gave a GI50 [6] of 1.78 µM, a TGI [6] of 3.28 µM and a GI50 [7] of 1.69 µM. The TGI [7] was 3.16 µM, the GI50 [8] was 1550 nM and the TGI [8] was 3.03 µM.

With `Cn1cccc1-c1cc(-c2ccccc2)[nH]c(=O)c1C#N` the GI50 [9] was > 100000 nM, the TGI [9] was > 100 µM and the GI50 [1] was > 100 µM. The TGI [1] was > 100 µM, the GI50 [2] was > 100000 nM and the TGI [2] was > 100 µM. The GI50 [3] was > 100000 nM, the TGI [3] was > 100 µM and the GI50 [4] was > 100 µM. The TGI [4] was > 100 µM, the GI50 [5] was > 100 µM and the TGI [5] was > 100 µM. The GI50 [6] was > 100 µM, the TGI [6] was > 100 µM and the GI50 [7] was > 100 µM. For the same molecule, the TGI [7] was > 100 µM, the GI50 [8] was > 100000 nM and the TGI [8] was > 100 µM.

With `COc1ccc(OC(C(=O)O)C(C)C)c2c1CCCC2=O` (configuration not stated) the TGI [9] was > 100 µM, the TGI [1] was > 100 µM and the TGI [3] was > 100 µM. The TGI [5] was > 100 µM, the TGI [6] was > 100 µM and the TGI [7] was > 100 µM. The TGI [8] was > 100 µM.

For `CC(C)(O)/C=C/C(=O)[C@](C)(O)[C@H]1[C@H](O)C[C@@]2(C)[C@@H]3CC=C4[C@@H](C[C@H](O)C(=O)C4(C)C)[C@]3(C)C(=O)C[C@]12C`, the TGI [9] was 0.598 µM and 2.81 µM, the TGI [1] was 0.473 µM and 0.495 µM and the GI50 [10] was 390 nM. For the same molecule, the TGI [10] was 5.05 µM, the GI50 [3] was 264 nM and the TGI [3] was 0.629 µM and 2.61 µM. For the same molecule, the GI50 [5] was 0.0294 µM, the TGI [5] was 0.0829 µM and 0.131 µM and the GI50 [6] was 0.0476 µM. For the same molecule, the TGI [6] was 0.349 µM and 0.951 µM, the GI50 [7] was 0.224 µM and the TGI [7] was 16.5 µM. For the same molecule, the GI50 [8] was 125 nM and the TGI [8] was 1.02 µM.

With `O=C1C(=O)N(c2ccc(Cl)cc2)C(=O)C(=O)C1c1nc2ccccc2s1` the TGI [9] was > 100 µM, the TGI [1] was > 100 µM and the TGI [3] was > 100 µM. For the same molecule, the TGI [5] was > 100 µM, the TGI [6] was > 100 µM and the TGI [8] was > 100 µM.

In the case of `Clc1cccc(N2CCN(CCCN3CCc4c([nH]c5ccccc45)C3c3cccnc3)CC2)c1` (configuration not stated), the TGI [9] is reported as 12.1 µM, the GI50 [10] is reported as 4580 nM and the TGI [10] is reported as 7.34 µM and 24.6 µM. For the same molecule, the TGI [5] was 24.3 µM, the TGI [6] was > 100 µM and the GI50 [7] was 16.1 µM. It also gave a TGI [7] of 36.9 µM, a GI50 [8] of 9240 nM and a TGI [8] of 22.7 µM.

With `CSc1ncc(Br)c(Sc2nc(N)nc3nc[nH]c23)n1` the GI50 [9] was 3230 nM, the TGI [9] was 37.9 µM and the GI50 [1] was 2.45 µM. For the same molecule, the TGI [1] was 15.8 µM, the GI50 [2] was 1950 nM and the TGI [2] was 21.2 µM. The GI50 [3] was 1150 nM, the TGI [3] was > 100 µM and the GI50 [4] was 3.64 µM. The TGI [4] was > 100 µM, the GI50 [5] was 1.12 µM and the TGI [5] was 7.33 µM. For the same molecule, the GI50 [6] was 22.3 µM, the TGI [6] was > 100 µM and the GI50 [7] was 9.77 µM. The TGI [7] was 71.1 µM, the GI50 [8] was 3320 nM and the TGI [8] was 11.1 µM.
